What was measured:
NR2 antibodies [1] = experiment: NR2 antibody monitoring in three patients (minor CVA, TIA, ischemic stroke) given oral Trental; assay type: in vivo, human
Method: The first case was a non-smoker who had previously undergone valve replacement surgery in 1987 and had received a coronary artery stent in 2002. The patient had been treated with coumudin since the first surgery. NR2 antibodies measured at base line were […] the 2 ng/ml cutoff. (FIG. 1). […] At the same time, the patient had complaints on chronic fatigue and numbness in the 4th and 5th digits of their left arm lasting quite a long period of time. […] Antibodies continued to decrease up to 6th mo. after treatment was initiated and remained below the cut off level more than 1 year after therapy.
The second patient was a apparently healthy person. Their blood assay for NR2 antibodies was performed initially on a voluntary basis as a healthy control. […] The patient used Plavix and Lipitor on daily basis as well.
The third patient was an non-smoker who had suffered ischemic stroke on May 28-29, 2002 after angioplasty. They had receiving coumadin, eardizem, atenolol, hytrin, lasix, and guaifinex when they entered the study.

[2] = acute ischemic stroke; non-significant reduction; 95% CI: 0.41, 1.02; cited from earlier work
NR2 antibodies [3] = experiment: Serial blood NR2 antibody levels over 24 months of aspirin treatment follow up in individuals with DM/AS at high risk for CVA; assay type: in vivo, human; settings: for NR2 antibodies, 6 mo.: 6 months; for NR2 antibodies, 0 mo.: base level before treatment
Method: (§1) In this study, serial measurements of blood levels of NR2 antibodies in an out-patient setting in individuals with diabetes mellitus (DM) and atherosclerosis (AS) who are at high risk for subsequent CVA were evaluated to establish whether this biomarker can be used to monitor the efficacy of aspirin treatment. Every person who participated in the study underwent neurological examination and computed tomography (CT) of the brain. The age of the 33 persons (17 male/16 female) ranged from 47-64 yrs (mean 55.7 yrs). Patients with documented 5-10 year history of DM/AS and normal neurological examination without a previous history of neurological event such as transient ischemic attack (TIA), or prolonged reversible ischemic neurological deficit or stroke were observed. Based on laboratory and clinical testing, all participants were at borderline glucose intolerance, with blood glucose levels of 119 to 132 mg/dL, and had complaints on fatigue, low concentration of attention, and numbness in digits of left or right hand.
Out of 22 individuals, 10 (6 male/4 female) were randomly assigned to a placebo group and the rest used daily over-counter aspirin in a dose of 325 mg which formed group 1 (Table 3). None of people of group 1 developed the resistance to aspirin.
NR2 antibodies were detected at a base level for each group before treatment was initiated (0 mo.) and then each following 6 months for two years. […] A TIA event was documented in 1 patient from the placebo group. […] By the end of the study at 24 mo., two out of 9 persons suffered a TIA which developed into an acute ischemic stroke in one patient.

[4] = TIA rate over 24 months of aspirin treatment follow up in individuals with DM/AS; assay type: in vivo, human; settings: 24 months follow up
Method: as §1
Out of 22 individuals, 10 (6 male/4 female) were randomly assigned to a placebo group and the rest used daily over-counter aspirin in a dose of 325 mg which formed group 1 (Table 3). […]
NR2 antibodies were detected at a base level for each group before treatment was initiated (0 mo.) and then each following 6 months for two years. […]

[5] = large meta-analysis, BMJ 1994; cited from earlier work
[6] = patients with TIA or minor CVA; cited from earlier work
[7] = Group 1 (not aspirin-resistant, N=12), aspirin 325 mg daily
[8] = Group 2 (resistant to aspirin, N=9), aspirin 325 mg/day

Structure (SMILES) | Effect on level of NR2 antibodies (NR2 antibodies [1]; person after TIA, oral 200 mg twice a day for 30 days, FIG. 2) | Effect on level of NR2 antibodies (NR2 antibodies [1]; person after ischemic stroke, oral 200 mg x 3 times a day for 60 days, FIG. 3) | Effect on level of NR2 antibodies (NR2 antibodies [1]; person, minor CVA, oral 200 mg twice a day for 30 days, FIG. 1) | Odds ratio of early death [2] | NR2 antibodies, 6 mo. (NR2 antibodies [3]; [7]) [ng/mL] | NR2 antibodies, 0 mo. (NR2 antibodies [3]; [7]) [ng/mL] | Change of NR2 antibody levels (NR2 antibodies [3]; Group 1, aspirin 325 mg daily, below cut off of 2 ng/ml, no CVA consequences) | NR2 antibodies, 6 mo. (NR2 antibodies [3]; [8]) [ng/mL] | NR2 antibodies, 0 mo. (NR2 antibodies [3]; [8]) [ng/mL] | Change of NR2 antibody levels (NR2 antibodies [3]; Group 2, patients resistant to aspirin, any time during the study) | TIA rate [4, 7] | TIA rate [4, 8] | Reduction of incidence of stroke, myocardial infarction, or vascular death [5] [%] | Reduction of the risk of TIA [6] [%]
CC(=O)CCCCn1c(=O)c2c(ncn2C)n(C)c1=O [Trental, pentoxifylline] | reduced the level of NR2 antibodies to the control level of healthy individuals | reduced the level of NR2 antibodies to the cut off | reduced the level of NR2 antibodies by the end of treatment | 0.64 | – | – | – | – | – | – | – | – | – | –
CC(=O)Oc1ccccc1C(=O)O [aspirin] | – | – | – | – | 2.51 ± 0.28 | 3.05 ± 0.21 | significantly reduced | 3.22 ± 0.30 | 2.87 ± 0.11 | no improvement in NR2 antibodies levels | 0 | 2/9 | 25 | 20

From patent US20100210816A1, “NMDAR Biomarkers for Diagnosing and Treating Cerebral Ischemia” (priority 2006, published 2010)
